Experimental data: patent publication US20250215029A1 (Recludix Pharma, Inc., priority 2022, published 2025)
Read-outs that look alike come from different tables or passages of the source.

Molecular target: T1, pY705-STAT3 in PBMC (Homo sapiens, UniProt P40763)
T1 construct: Cryopreserved Peripheral Blood Mononuclear Cells (PBMC) are from AllCells; host or cells: cryopreserved PBMC
Test: MSD-pSTAT-PBMC Assay (pSTAT3, IL-6 stimulated)
Type: cell-based
Details: compound 3 hrs, then 10 ng/mL IL-6 for 10 min, Table 115
Summary of the method: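 Thawed human PBMC rested overnight in IMDM/10% FBS, then got compound for 3 hrs before a 10 min cytokine pulse: 1 ng/mL IL-4 for pSTAT6, 10 ng/mL IL-6 for pSTAT3. Lysates went to MSD sandwich capture on total STAT6 or STAT3 with phospho-specific detection. IC50 came from background-subtracted, DMSO-normalized signal.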

T1 sequence (P40763 whole entry): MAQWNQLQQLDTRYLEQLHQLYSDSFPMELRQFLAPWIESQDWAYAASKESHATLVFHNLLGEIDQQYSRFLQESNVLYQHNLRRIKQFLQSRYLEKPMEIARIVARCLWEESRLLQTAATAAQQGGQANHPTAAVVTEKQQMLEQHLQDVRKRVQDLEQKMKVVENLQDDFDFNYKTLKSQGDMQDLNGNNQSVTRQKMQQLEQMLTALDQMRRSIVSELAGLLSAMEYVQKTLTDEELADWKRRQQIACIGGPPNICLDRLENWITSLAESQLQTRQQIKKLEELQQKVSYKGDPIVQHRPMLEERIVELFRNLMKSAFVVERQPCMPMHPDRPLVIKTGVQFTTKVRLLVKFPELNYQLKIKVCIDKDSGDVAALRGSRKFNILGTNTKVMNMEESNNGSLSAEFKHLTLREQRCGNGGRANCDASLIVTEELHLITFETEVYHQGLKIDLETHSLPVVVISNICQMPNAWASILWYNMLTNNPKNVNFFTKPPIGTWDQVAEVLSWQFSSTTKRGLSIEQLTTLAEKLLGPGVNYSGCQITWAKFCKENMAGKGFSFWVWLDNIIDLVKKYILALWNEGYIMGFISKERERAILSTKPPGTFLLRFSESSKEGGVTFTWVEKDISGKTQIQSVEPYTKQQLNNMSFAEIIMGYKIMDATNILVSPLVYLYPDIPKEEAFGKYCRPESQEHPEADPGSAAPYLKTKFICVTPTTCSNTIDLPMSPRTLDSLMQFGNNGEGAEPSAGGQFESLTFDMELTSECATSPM

| Compound | IC50 (PBMC, read-out: STAT3) [nM] | IC50 (STAT3, PBMC) [nM] |
| --- | --- | --- |
| CCCOC(=O)[C@H](C)NP(=O)(Oc1ccccc1)C(F)c1ccc2sc(C(=O)N[C@H]3CCCC[C@H]4CC[C@@H](C(=O)N5CC(NCCOC)(c6ccccn6)C5)N4C3=O)cc2c1 (stereo partly drawn) [Compound 987, propyl ((fluoro(2-(((3S,6S,10aS)-3-(3-((2-methoxyethyl)amino)-3-(pyridin-2-yl)azetidine-1-carbonyl)-5-oxodecahydropyrrolo [1,2-a]azocin-6-yl)carbamoyl)benzo [b]thiophen-5-yl)methyl)(phenoxy)phosphoryl)-L-alaninate] | 100 to 1000 | – |
| CCCOC(=O)[C@H](C)NP(=O)(Cc1ccc2sc(C(=O)N[C@H]3CC[C@@H](C)C[C@H]4CC[C@@H](C(=O)N5CC(c6cnccc6F)C5)N4C3=O)cc2c1)Oc1ccccc1 (stereo partly drawn) [Compound 988, propyl (((2-(((3S,6S,9R,10aR)-3-(3-(4-fluoropyridin-3-yl)azetidine-1-carbonyl)-9-methyl-5-oxodecahydropyrrolo [1,2-a]azocin-6-yl)carbamoyl)benzo [b]thiophen-5-yl)methyl)(phenoxy)phosphoryl)-L-alaninate] | < 100 | – |
| CCCOC(=O)[C@H](C)NP(=O)(Cc1ccc2sc(C(=O)N[C@H]3CCC[C@H]4CC[C@@H](C(=O)N5CC(c6c(OC)ccnc6C(F)F)C5)N4C3=O)cc2c1)Oc1ccccc1 (stereo partly drawn) [Compound 990, propyl (((2-(((3S,6S, 9aS)-3-(3-(2-(difluoromethyl)-4-methoxypyridin-3-yl)azetidine-1-carbonyl)-5-oxooctahydro-1H-pyrrolo[1,2-a]azepin-6-yl)carbamoyl)benzo [b]thiophen-5-yl)methyl)(phenoxy)phosphoryl)-L-alaninate] | > 3000 | – |
| CCCOC(=O)[C@H](C)NP(=O)(Cc1ccc2sc(C(=O)N[C@H]3CCC[C@H]4CC[C@@H](C(=O)N5CC(c6cnc(C(F)F)cc6OC)C5)N4C3=O)cc2c1)Oc1ccccc1 (stereo partly drawn) [Compound 991, propyl (((2-(((3S,6S,9aS)-3-(3-(6-(difluoromethyl)-4-methoxypyridin-3-yl)azetidine-1-carbonyl)-5-oxooctahydro-1H-pyrrolo[1,2-a]azepin-6-yl)carbamoyl)benzo [b]thiophen-5-yl)methyl)(phenoxy)phosphoryl)-L-alaninate] | – | > 3000 |
| CCCOC(=O)[C@H](C)NP(=O)(Cc1ccc2sc(C(=O)N[C@H]3CC[C@H](C)C[C@H]4CC[C@@H](C(=O)N5CC(c6cnccc6F)C5)N4C3=O)cc2c1)Oc1ccccc1 (stereo partly drawn) [Compound 993, propyl (((2-(((3S,6S,9S,10aR)-3-(3-(4-fluoropyridin-3-yl)azetidine-1-carbonyl)-9-methyl-5-oxodecahydropyrrolo [1,2-a]azocin-6-yl)carbamoyl)benzo [b]thiophen-5-yl)methyl)(phenoxy)phosphoryl)-L-alaninate] | < 100 | – |
| CCCOC(=O)[C@H](C)NP(=O)(Oc1ccccc1)[C@@H](F)c1ccc2sc(C(=O)N[C@H]3CCC[C@H]4CC[C@@H](C(=O)N5CC(c6cnccc6F)C5)N4C3=O)cc2c1 (stereo partly drawn) [Compound 994, propyl (((R)-fluoro(2-(((3S,6S,9aS)-3-(3-(4-fluoropyridin-3-yl)azetidine-1-carbonyl)-5-oxooctahydro-1H-pyrrolo[1,2-a]azepin-6-yl)carbamoyl)benzo [b]thiophen-5-yl)methyl)(phenoxy)phosphoryl)-L-alaninate] | 100 to 1000 | – |
| CCCOC(=O)[C@H](C)NP(=O)(Oc1ccccc1)C(F)c1ccc2sc(C(=O)N[C@H]3CCCC[C@H]4CC[C@@H](C(=O)N5CC(OCCOC)(c6cccnc6)C5)N4C3=O)cc2c1 (stereo partly drawn) [Compound 995, propyl ((fluoro(2-(((3S,6S,10aS)-3-(3-(2-methoxyethoxy)-3-(pyridin-3-yl)azetidine-1-carbonyl)-5-oxodecahydropyrrolo [1,2-a]azocin-6-yl)carbamoyl)benzo [b]thiophen-5-yl)methyl)(phenoxy)phosphoryl)-L-alaninate] | < 100 | – |
| CCCOC(=O)[C@H](C)NP(=O)(Cc1ccc2sc(C(=O)N[C@H]3CCC[C@H]4CC[C@@H](C(=O)N5CC(c6cnccc6OC(F)F)C5)N4C3=O)cc2c1)Oc1ccccc1 (stereo partly drawn) [Compound 996, propyl (((2-(((3S,6S,9aS)-3-(3-(4-(difluoromethoxy)pyridin-3-yl)azetidine-1-carbonyl)-5-oxooctahydro-1H-pyrrolo[1,2-a]azepin-6-yl)carbamoyl)benzo [b]thiophen-5-yl)methyl)(phenoxy) )phosphoryl)-L-alaninate] | 100 to 1000 | – |
| CC(C)(C)C(=O)SCCOP(=O)(OCCSC(=O)C(C)(C)C)C(F)(F)c1ccc2sc(C(=O)N[C@H]3CCC[C@H]4CC[C@@H](C(=O)NCc5cnc6[nH]cnc6c5)N4C3=O)cc2c1 [Compound 1002, S,S′-(((((2-(((3S,6S,9aS)-3-(((3H-imidazo[4,5-b]pyridin-6-yl)methyl)carbamoyl)-5-oxooctahydro-1H-pyrrolo[1,2-a]azepin-6-yl)carbamoyl)benzo [b]thiophen-5-yl)difluoromethyl)phosphoryl)bis(oxy))bis(ethane-2,1-diyl)) bis(2,2-dimethyl-propanethioate)] | < 100 | – |
| CCCCOC(=O)[C@@H]1CCCN1P(=O)(Cc1ccc2sc(C(=O)N[C@H]3CCC[C@H]4CC[C@@H](C(=O)N5CC(c6cccnc6)C5)N4C3=O)cc2c1)Oc1ccccc1 (stereo partly drawn) [Compound 1003, butyl (((2-(((3S,6S,9aS)-5-oxo-3-(3-(pyridin-3-yl)azetidine-1-carbonyl)octahydro-1H-pyrrolo[1,2-a]azepin-6-yl)carbamoyl)benzo [b]thiophen-5-yl)methyl)(phenoxy)phosphoryl)-L-prolinate] | 1000 to 3000 | – |
| CCCCOC(=O)[C@H](C)NP(=O)(Cc1ccc2sc(C(=O)N[C@H]3CCC[C@H]4CC[C@@H](C(=O)N5CC(c6cccnc6)C5)N4C3=O)cc2c1)Oc1cccc2ccccc12 (stereo partly drawn) [Compound 1004, butyl ((naphthalen-1-yloxy)((2-(((3S,6S,9aS)-5-oxo-3-(3-(pyridin-3-yl)azetidine-1-carbonyl)octahydro-1H-pyrrolo[1,2-a]azepin-6-yl)carbamoyl)benzo [b]thiophen-5-yl)methyl)phosphoryl)-L-alaninate] | – | 100 to 1000 |
| CC(C)(C)C(=O)SCCOP(=O)(OCCSC(=O)C(C)(C)C)C(F)(F)c1ccc2sc(C(=O)N[C@H]3CCCC[C@H]4CC[C@@H](C(=O)NCc5cnc6[nH]cnc6c5)N4C3=O)cc2c1 [Compound 1005, S,S′-(((((2-(((3S,6S,10aS)-3-(((3H-imidazo[4,5-b]pyridin-6-yl)methyl)carbamoyl)-5-oxodecahydropyrrolo [1,2-a]azocin-6-yl)carbamoyl)benzo [b]thiophen-5-yl)difluoromethyl)phosphoryl)bis(oxy))bis(ethane-2,1-diyl)) bis(2,2-dimethyl-propanethioate)] | < 100 | – |
| O=C(Cc1ccccc1)SCCOP(=O)(OCCSC(=O)Cc1ccccc1)C(F)(F)c1ccc2sc(C(=O)N[C@H]3CCC[C@H]4CC[C@@H](C(=O)N5CC(c6cccnc6)C5)N4C3=O)cc2c1 [Compound 1006, S,S′-((((difluoro(2-(((3S,6S,9aS)-5-oxo-3-(3-(pyridin-3-yl)azetidine-1-carbonyl)octahydro-1H-pyrrolo[1,2-a]azepin-6-yl)carbamoyl)benzo [b]thiophen-5-yl)methyl)phosphoryl)bis(oxy))bis(ethane-2,1-diyl)) bis(2-phenylethanethioate)] | < 100 | – |
| CN=S(C)(=O)CC1(OC)CN(C(=O)C2CCC3CCCC(NC(=O)c4cc5cc(C(F)(F)P(=O)(OCCSC(=O)C(C)(C)C)OCCSC(=O)C(C)(C)C)ccc5s4)C(=O)N32)C1 [Compound 1015, S,S′-(((((2-(((3S,6S,9aS)-3-(3-((N,S-dimethyl-sulfonimidoyl)methyl)-3-methoxyazetidine-1-carbonyl)-5-oxooctahydro-1H-pyrrolo[1,2-a]azepin-6-yl)carbamoyl)benzo [b]thiophen-5-yl)difluoromethyl)phosphoryl)bis(oxy))bis(ethane-2,1-diyl)) bis(2,2-dimethyl-propanethioate)] | < 100 | – |
| CC[C@@H](C)OC(=O)[C@H](C)NP(=O)(Cc1ccc2sc(C(=O)N[C@H]3CCC[C@H]4CC[C@@H](C(=O)N5CC(c6cccnc6)C5)N4C3=O)cc2c1)Oc1ccccc1 (stereo partly drawn) [Compound 1016, (R)-sec-butyl (((2-(((3S,6S,9aS)-5-oxo-3-(3-(pyridin-3-yl)azetidine-1-carbonyl)octahydro-1H-pyrrolo[1,2-a]azepin-6-yl)carbamoyl)benzo [b]thiophen-5-yl)methyl)(phenoxy)phosphoryl)-L-alaninate] | 100 to 1000 | – |
| CCCOC(=O)[C@H](COC)NP(=O)(Cc1ccc2sc(C(=O)N[C@H]3CCC[C@H]4CC[C@@H](C(=O)N5CC(c6cnccc6N(C)C)C5)N4C3=O)cc2c1)Oc1ccccc1 (stereo partly drawn) [Compound 1017, propyl N-(((2-(((3S,6S,9aS)-3-(3-(4-(dimethylamino)pyridin-3-yl)azetidine-1-carbonyl)-5-oxooctahydro-1H-pyrrolo[1,2-a]azepin-6-yl)carbamoyl)benzo [b]thiophen-5-yl)methyl)(phenoxy)phosphoryl)-O-methyl-L-serinate] | < 100 | – |
| CCCOC(=O)[C@H](C)NP(=O)(Oc1ccccc1)[C@H](F)c1ccc2sc(C(=O)N[C@H]3CCC[C@H]4CC[C@@H](C(=O)N5CC(c6cncnc6N6CC[C@H]6COC)C5)N4C3=O)cc2c1 (stereo partly drawn) [Compound 1018, propyl (((S)-fluoro(2-(((3S,6S,9aS)-3-(3-(4-((S)-2-(methoxymethyl)azetidin-1-yl)pyrimidin-5-yl)azetidine-1-carbonyl)-5-oxooctahydro-1H-pyrrolo[1,2-a]azepin-6-yl)carbamoyl)benzo [b]thiophen-5-yl)methyl)(phenoxy)phosphoryl)-L-alaninate] | < 100 | – |
